Consider eleven molecules from patent US20260144788A1, “COMPOUND FOR SHP2 PROTEIN DEGRADATION AND MEDICAL USES THEREOF” (UBIX THERAPEUTICS, INC., priority 2022, published 2026).

The test concerns the target T1, SHP2 protein (Homo sapiens, UniProt Q06124).
T1 sequence (Q06124 1-593): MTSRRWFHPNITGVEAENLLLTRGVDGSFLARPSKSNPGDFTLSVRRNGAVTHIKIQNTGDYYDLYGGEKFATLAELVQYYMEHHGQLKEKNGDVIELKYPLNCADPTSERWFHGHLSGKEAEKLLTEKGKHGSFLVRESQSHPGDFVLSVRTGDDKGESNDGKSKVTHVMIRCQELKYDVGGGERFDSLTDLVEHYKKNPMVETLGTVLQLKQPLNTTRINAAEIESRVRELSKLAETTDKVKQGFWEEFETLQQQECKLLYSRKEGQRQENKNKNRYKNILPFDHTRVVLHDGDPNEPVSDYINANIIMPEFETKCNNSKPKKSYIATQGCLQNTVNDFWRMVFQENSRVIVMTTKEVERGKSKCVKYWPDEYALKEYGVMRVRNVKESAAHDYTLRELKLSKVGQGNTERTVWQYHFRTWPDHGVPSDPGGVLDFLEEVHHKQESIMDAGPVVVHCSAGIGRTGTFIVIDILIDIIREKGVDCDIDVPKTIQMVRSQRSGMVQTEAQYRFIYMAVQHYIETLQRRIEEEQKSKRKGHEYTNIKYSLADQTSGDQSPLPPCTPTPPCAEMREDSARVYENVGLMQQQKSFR
As to the kind of experiment: Measurement of SHP2 protein degradation in NCI-H358 cells (western blotting). More on the design: endogenous in cells; host or cells: NCI-H358. Conditions: harvested after 24 hours. Format: cell-based. Put shortly: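 H358 cells in RPMI1640/25 mM HEPES/10% FBS, cultured 24 h, then exposed to compound at final 0.001, 0.01 and 0.1 μM for 24 h against a DMSO control. Lysates were normalised for protein by BCA and probed by western blot for SHP2, with GAPDH as loading control.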
A general note: In western blotting, separated proteins are transferred to a membrane and probed.

`CC(=O)N[C@H](C(=O)N1C[C@H](O)C[C@H]1C(=O)NCc1ccc(-c2scnc2C)cc1OC1CCN(C(=O)C2CCN(c3nccc(Sc4cnc(N5CCC(C)(N)CC5)c(CO)n4)c3Cl)CC2)CC1)C(C)(C)C` [Example 79, (2S,4R)-1-((S)-2-acetamido-3,3-dimethylbutanoyl)-N-(2-((1-(1-(4-((5-(4-amino-4-methylpiperidin-1-yl)-6-(hydroxymethyl)pyrazin-2-yl)thio)-3-chloropyridin-2-yl)piperidine-4-carbonyl)piperidin-4-yl)oxy)-4-(4-methylthiazol-5-yl)benzyl)-4-hydroxypyrrolidine-2-carboxamide]: the SHP2% degradation (0.01 μM) was 96.1% and the SHP2% degradation (0.1 μM) came to 99.9%.
Taken in the same sequence, the figures for `Cc1ncsc1-c1ccc(CNC(=O)[C@@H]2C[C@@H](O)CN2C(=O)[C@H](C(C)C)n2cc(C3CC3)nn2)c(OC2CCN(C(=O)C3CCN(c4nccc(Sc5cnc(N6CCC7(CC6)CO[C@@H](C)[C@H]7N)c(CO)n5)c4Cl)CC3)CC2)c1` [Example 106, (2S,4R)—N-(2-((1-(1-(4-((5-((3S,4S)-4-amino-3-methyl-2-oxa-8-azaspiro[4.5]decan-8-yl)-6-(hydroxymethyl)pyrazin-2-yl)thio)-3-chloropyridin-2-yl)piperidine-4-carbonyl)piperidin-4-yl)oxy)-4-(4-methylthiazol-5-yl)benzyl)-1-((S)-2-(4-cyclopropyl-1H-1,2,3-triazol-1-yl)-3-methylbutanoyl)-4-hydroxypyrrolidine-2-carboxamide] were 99.1% and 97.3%.
On to `Cc1ncsc1-c1ccc(CNC(=O)[C@@H]2C[C@@H](O)CN2C(=O)[C@@H](NC(=O)C2(F)CC2)C(C)(C)C)c(O[C@H]2CC[C@H](C(=O)N3CC(Nc4cccc(Sc5cnc(N6CCC7(CC6)Cc6ncccc6[C@H]7N)cn5)c4Cl)C3)CC2)c1` [Example 15, (2S,4R)—N-(2-(((1R,4S)-4-(3-((3-((5-((S)-5-amino-5,7-dihydrospiro[cyclopenta[b]pyridine-6,4′-piperidin]-1′-yl)pyrazin-2-yl)thio)-2-chlorophenyl)amino)azetidine-1-carbonyl)cyclohexyl)oxy)-4-(4-methylthiazol-5-yl)benzyl)-1-((S)-2-(1-fluorocyclopropane-1-carboxamido)-3,3-dimethylbutanoyl)-4-hydroxypyrrolidine-2-carboxamide], for which the SHP2% degradation (0.01 μM) came out at 93.5% and the SHP2% degradation (0.1 μM) is 99.6%.
On the same counts, the results for `Cc1ncsc1-c1ccc(CNC(=O)[C@@H]2C[C@@H](O)CN2C(=O)[C@H](C(C)C)n2cc(C3CC3)nn2)c(OC2CCN(C(=O)C3CCN(c4nccc(Sc5cnc(N6CCC(C)(N)CC6)cn5)c4Cl)CC3)CC2)c1` [Example 102, (2S,4R)—N-(2-((1-(1-(4-((5-(4-amino-4-methylpiperidin-1-yl)pyrazin-2-yl)thio)-3-chloropyridin-2-yl)piperidine-4-carbonyl)piperidin-4-yl)oxy)-4-(4-methylthiazol-5-yl)benzyl)-1-((S)-2-(4-cyclopropyl-1H-1,2,3-triazol-1-yl)-3-methylbutanoyl)-4-hydroxypyrrolidine-2-carboxamide] are 99.4% and 99.8%.
On the same counts, the results for `CC(=O)N[C@H](C(=O)N1C[C@H](O)C[C@H]1C(=O)NCc1ccc(-c2scnc2C)cc1O[C@H]1CC[C@H](C(=O)N2CC(Nc3nccc(Sc4cnc(N5CCC(C)(N)CC5)cn4)c3Cl)C2)CC1)C(C)(C)C` [Example 39, (2S,4R)-1-((S)-2-acetamido-3,3-dimethylbutanoyl)-N-(2-(((1R,4S)-4-(3-((4-((5-(4-amino-4-methylpiperidin-1-yl)pyrazin-2-yl)thio)-3-chloropyridin-2-yl)amino)azetidine-1-carbonyl)cyclohexyl)oxy)-4-(4-methylthiazol-5-yl)benzyl)-4-hydroxypyrrolidine-2-carboxamide] are 83.6% and 98.1%.
On the same counts, the results for `CC(=O)N[C@H](C(=O)N1C[C@H](O)C[C@H]1C(=O)NCc1ccc(-c2scnc2C)cc1O[C@H]1CC[C@H](C(=O)N2CCC(N3CCc4c(Sc5cnc(N6CCC7(CC6)CO[C@@H](C)[C@H]7N)cn5)cccc43)CC2)CC1)C(C)(C)C` [Example 33, (2S,4R)-1-((S)-2-acetamido-3,3-dimethylbutanoyl)-N-(2-(((1R,4S)-4-(4-(4-((5-((3S,4S)-4-amino-3-methyl-2-oxa-8-azaspiro[4.5]decan-8-yl)pyrazin-2-yl)thio)indolin-1-yl)piperidine-1-carbonyl)cyclohexyl)oxy)-4-(4-methylthiazol-5-yl)benzyl)-4-hydroxypyrrolidine-2-carboxamide] are 96.6% and 99.1%.
As for `Cc1cc(C(C(=O)N2C[C@H](O)C[C@H]2C(=O)NCc2ccc(-c3scnc3C)cc2OC2CCN(C(=O)C3CCN(c4nccc(Sc5cnc(N6CCC(C)(N)CC6)c(CO)n5)c4Cl)CC3)CC2)C(C)C)on1` (stereo partly drawn) [Example 97, (2S,4R)—N-(2-((1-(1-(4-((5-(4-amino-4-methylpiperidin-1-yl)-6-(hydroxymethyl)pyrazin-2-yl)thio)-3-chloropyridin-2-yl)piperidine-4-carbonyl)piperidin-4-yl)oxy)-4-(4-methylthiazol-5-yl)benzyl)-4-hydroxy-1-(3-methyl-2-(3-methylisoxazol-5-yl)butanoyl)pyrrolidine-2-carboxamide], the SHP2% degradation runs as follows: (0.01 μM) 95.0%; (0.1 μM) 99.7%.
For `Cc1ncsc1-c1ccc(CNC(=O)[C@@H]2C[C@@H](O)CN2C(=O)[C@H](C(C)C)n2cc(C3CC3)nn2)c(OC2CCN(C(=O)C3CCN(c4nccc(Sc5cnc(N6CCC7(CC6)CO[C@@H](C)[C@H]7N)cn5)c4Cl)CC3)CC2)c1` [Example 103, (2S,4R)—N-(2-((1-(1-(4-((5-((3S,4S)-4-amino-3-methyl-2-oxa-8-azaspiro[4.5]decan-8-yl)pyrazin-2-yl)thio)-3-chloropyridin-2-yl)piperidine-4-carbonyl)piperidin-4-yl)oxy)-4-(4-methylthiazol-5-yl)benzyl)-1-((S)-2-(4-cyclopropyl-1H-1,2,3-triazol-1-yl)-3-methylbutanoyl)-4-hydroxypyrrolidine-2-carboxamide], the SHP2% degradation by setting is: (0.01 μM) 99.9%; (0.1 μM) 99.7%.
On the same counts, the results for `CC(=O)N[C@H](C(=O)N1C[C@H](O)C[C@H]1C(=O)NCc1ccc(-c2scnc2C)cc1O[C@H]1CC[C@H](C(=O)N2CCC(n3cc(F)c4c(Sc5cnc(N6CCC(C)(CN)CC6)cn5)cccc43)CC2)CC1)C(C)(C)C` [Example 37, (2S,4R)-1-((S)-2-acetamido-3,3-dimethylbutanoyl)-N-(2-(((1r,4S)-4-(4-(4-((5-(4-(aminomethyl)-4-methylpiperidin-1-yl)pyrazin-2-yl)thio)-3-fluoro-1H-indol-1-yl)piperidine-1-carbonyl)cyclohexyl)oxy)-4-(4-methylthiazol-5-yl)benzyl)-4-hydroxypyrrolidine-2-carboxamide] are 75.8% and 99. %.
On the same counts, the results for `CC(=O)N[C@H](C(=O)N1C[C@H](O)C[C@H]1C(=O)NCc1ccc(-c2scnc2C)cc1O[C@H]1CC[C@H](C(=O)N2CC(Nc3nccc(Sc4cnc(N5CCC6(CC5)CO[C@@H](C)[C@H]6N)cn4)c3Cl)C2)CC1)C(C)(C)C` [Example 40, (2S,4R)-1-((S)-2-acetamido-3,3-dimethylbutanoyl)-N-(2-(((1R,4S)-4-(3-((4-((5-((3S,4S)-4-amino-3-methyl-2-oxa-8-azaspiro[4.5]decan-8-yl)pyrazin-2-yl)thio)-3-chloropyridin-2-yl)amino)azetidine-1-carbonyl)cyclohexyl)oxy)-4-(4-methylthiazol-5-yl)benzyl)-4-hydroxypyrrolidine-2-carboxamide] are 94.2% and 95.9%.
Taken in the same sequence, the figures for `CC(=O)N[C@H](C(=O)N1C[C@H](O)C[C@H]1C(=O)NCc1ccc(-c2scnc2C)cc1OC1CCN(C(=O)C2CCN(c3nccc(Sc4cnc(N5CCC6(CC5)CO[C@@H](C)[C@H]6N)c(CO)n4)c3Cl)CC2)CC1)C(C)(C)C` [Example 80, (2S,4R)-1-((S)-2-acetamido-3,3-dimethylbutanoyl)-N-(2-((1-(1-(4-((5-((3S,4S)-4-amino-3-methyl-2-oxa-8-azaspiro[4.5]decan-8-yl)-6-(hydroxymethyl)pyrazin-2-yl)thio)-3-chloropyridin-2-yl)piperidine-4-carbonyl)piperidin-4-yl)oxy)-4-(4-methylthiazol-5-yl)benzyl)-4-hydroxypyrrolidine-2-carboxamide] were 99.6% and 99.5%.
